Results on one compound are retold here after US20250250251A1, “PIPERIDINYLPYRIDINYLCARBONITRILE DERIVATIVES AS INHIBITORS OF GLUTAMINYL-PEPTIDE CYCLOTRANSFERASE AND GLUTAMINYL-PEPTIDE CYCLOTRANSFERASE LIKE PROTEIN” (Boehringer Ingelheim International GmbH, priority 2024, published 2025).

Assay [1] addresses T1, QPCTL (Homo sapiens, UniProt Q9NXS2).
T1 construct: made in house
As to the kind of experiment: Assay A: biochemical QPCTL activity assay (MALDI-TOF MS, CD47 peptide substrate). The note with it: Table 3, prior art compounds, read-out: Inhibition of QPCTL: IC50. Summed up:
(§1)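 Enzyme and compound pre-incubated 10 min at 24° C in 20 mM Tris pH 7.5 with TCEP, BSA, Tween20, then 40 min with CD47 peptide (10 μM for QPCTL, 20 μM for QPCT). Pyroglutamate product/internal standard ratio by MALDI-TOF MS, normalized to controls; four-parameter logistic fit.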

Assay [2] deals with T2, QPCT (Homo sapiens, UniProt Q16769).
T2 construct: purchased Origine (OriGene) TP700028
T2 sequence (Q16769 29-361): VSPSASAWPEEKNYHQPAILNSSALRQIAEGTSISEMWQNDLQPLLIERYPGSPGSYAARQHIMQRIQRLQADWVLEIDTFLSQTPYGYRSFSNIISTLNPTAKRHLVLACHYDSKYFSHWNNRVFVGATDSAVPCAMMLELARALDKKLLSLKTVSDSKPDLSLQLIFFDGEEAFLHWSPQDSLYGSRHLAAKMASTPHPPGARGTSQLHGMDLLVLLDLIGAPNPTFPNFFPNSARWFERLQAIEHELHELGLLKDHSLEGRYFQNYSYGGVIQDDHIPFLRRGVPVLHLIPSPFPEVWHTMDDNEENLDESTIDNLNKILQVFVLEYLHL
As to the kind of experiment: Assay A: biochemical QPCT activity assay (MALDI-TOF MS, CD47 peptide substrate). The note with it: Table 3, prior art compounds, read-out: Inhibition of QPCT: IC50. Summed up:
as §1

Assay [3] concerns SIRPα signalling induced by Raji cells. Kind of assay: Assay B: SIRPα signalling assay using Raji cells. Format: cell-based. Conditions: Homo sapiens, Table 5, prior art compounds, read-out: Inhibition of SIRPα signalling induced by Raji cells: IC50. In short, it runs like this: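 SIRPα signalling induced by Raji cells in a PathHunter reporter line, read as β-galactosidase complementation luminescence. Detection reagent 1 added for 15 min, then reagent 2 for 60 min in the dark, both at room temperature.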

T1 sequence (Q9NXS2 whole entry, species assumed): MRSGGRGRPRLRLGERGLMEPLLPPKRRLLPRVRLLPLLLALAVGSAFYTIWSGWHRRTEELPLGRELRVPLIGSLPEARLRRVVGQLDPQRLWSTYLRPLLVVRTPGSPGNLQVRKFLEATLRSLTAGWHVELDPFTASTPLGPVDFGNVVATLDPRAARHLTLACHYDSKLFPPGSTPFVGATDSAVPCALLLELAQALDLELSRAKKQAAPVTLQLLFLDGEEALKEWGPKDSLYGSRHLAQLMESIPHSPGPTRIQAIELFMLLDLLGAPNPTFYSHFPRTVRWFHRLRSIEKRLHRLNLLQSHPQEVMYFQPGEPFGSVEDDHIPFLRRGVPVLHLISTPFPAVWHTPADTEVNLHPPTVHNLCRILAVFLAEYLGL

By IC50 is commonly meant the concentration that gives 50% inhibition. As to `Cn1cnnc1C1CCN(c2c(-c3ccnnc3)ccc(Cl)c2C#N)CC1` [Compound 33, reference compound], the figures for the half-maximal inhibitory concentration (IC50) in assay [1], in assay [2] and in assay [3] were 1 nM, 2 nM and 132 nM, respectively.
